Measured values from patent publication US10662228B2 (priority 2014, dated 2020).

Tested on: potassium ion channel current of the DRG neurons
Format: cell-based, SD rats
Settings: 5 mM

SMILES: Nc1ccncc1 [4AP, 4-aminopyridine]
- Current inhibition rate: 0.338
- Current recorded after loading: 0.9766 nA
